The text below walks through data of ChEMBL document CHEMBL1140617, “Quantitative structure-activity relationship of sesquiterpene lactones with cytotoxic activity” (2007).

This assay deals with KB. As to the kind of experiment: Cytotoxicity against human KB cells. Format: functional. To be noted: for EC50: Homo sapiens, KB, read-out: ED50 (the source's name).

≈ marks a conversion by molar mass, not a printed value.

Take `C=C1C(=O)O[C@@H]2[C@H]1CC[C@H](C)[C@@H]1C[C@@H](O)C(=O)[C@@]21C`: the pED50 is given as 5 and the EC50 stood at 2.65 µg/mL (≈ 10 µM).

`C=C1C(=O)O[C@H]2[C@H]1[C@H](OC(=O)/C(C)=C\C)C[C@@]1(CO1)[C@@H]1[C@H](O)[C@H]3O[C@@]3(C)[C@]21O`: the pED50 is 5.18 and the EC50 stood at 2.6 µg/mL (≈ 6.63 µM).

As to `C=C1C(=O)O[C@H]2C[C@@H](C)[C@@H]3C=CC(=O)[C@@]3(C)C[C@H]12` (single isomer, unassigned) [AROMATICIN], the pED50 came to 5.86 and the EC50 was found to be 0.34 µg/mL (≈ 1.38 µM).

Turning to `C=C1C(=O)O[C@H]2[C@H]1[C@H](OC(=O)/C(C)=C\C)C[C@](O)(CCl)[C@@H]1[C@H](O)[C@H]3O[C@@]3(C)[C@]21O` (single isomer, unassigned) [EUPACHLOROXIN], the pED50 is on record as 5.08 and the EC50 was found to be 3.6 µg/mL (≈ 8.39 µM).

Take `C=C1C(=O)O[C@@H]2/C=C(/C)[C@@H](OC(C)=O)CC(O)/C(C)=C\[C@@H](OC(=O)C3(C)O[C@@H]3C)[C@@H]12` (single isomer, unassigned) [EUPACUNOXIN]: the pED50 is 5.3 and the EC50 came out at 2.1 µg/mL (≈ 4.99 µM).

In the case of `C=C1C(=O)O[C@H]2C[C@@H](C)[C@@H]3C=CC(=O)[C@@]3(C)[C@H](O)[C@H]12` (single isomer, unassigned) [MEXICANIN I], the pED50 came out at 5.9 and the EC50 was determined as 0.33 µg/mL (≈ 1.26 µM).

For the compound `C=C[C@@]12COC(=O)C(=C)[C@@H]1[C@H]1OC(=O)C(=C)[C@@H]1[C@@H](OC(=O)C(=C)C)C2` (single isomer, unassigned) [VERNOLEPIN METHACRYLATE], the pED50 is listed as 5.91 and the EC50 came to 0.42 µg/mL (≈ 1.22 µM).

With `C=C1C(=O)O[C@@H]2C[C@@H](C)[C@@H]3C=CC(=O)[C@@]3(C)[C@@H](O)[C@H]12` (stereo in doubt) [HELENALIN], the pED50 came out at 6.12 and the EC50 was 0.2 µg/mL (≈ 0.762 µM).

In the case of `C=C1C(=O)O[C@H]2[C@H]1[C@H](OC(=O)/C(C)=C\C)CC(=C)[C@@H]1[C@H](O)[C@H]3O[C@@]3(C)[C@@]12O` (stereo in doubt; 20) [EUPATUNDIN], the ED50 was 0.47 µg/mL (≈ 1.25 µM) and the pED50 worked out at 6.46.

On to `C=C1C(=O)O[C@H]2[C@H]1[C@H](OC(=O)/C(C)=C\C)CC(=C)[C@@H]1[C@H](O)[C@H]3O[C@@]3(C)[C@@]12O` (stereo in doubt; 28) [EUPATUNDIN], for which the pED50 is reported as 5.98 and the EC50 was found to be 0.47 µg/mL (≈ 1.25 µM).

Turning to `C=C1C(=O)O[C@@H]2[C@H]1CC[C@H](C)[C@@H]1C=CC(=O)[C@@]21C` [AMBROSIN], the pED50 was determined as 5.74 and the EC50 was determined as 0.45 µg/mL (≈ 1.83 µM).

For the compound `C=C1C(=O)O[C@H]2C/C(C)=C/C[C@@H](OC(C)=O)/C(C)=C/[C@@H](OC(C)=O)[C@H]12` [CHAMISSONIN DIACETATE], the pED50 came to 5.68 and the EC50 came out at 2.13 µg/mL.

Turning to `C=C1C(=O)O[C@@H]2[C@H]1CC[C@H](C)[C@]1(O)CCC(=O)[C@@]21C` [CORONOPILIN], the pED50 is reported as 5.26 and the EC50 was 1.45 µg/mL (≈ 5.49 µM).

With `C=C1C(=O)O[C@@H]2/C=C(\C)CCC=C(C)CC[C@@H]12` [COSTUNOLIDE], the pED50 worked out at 5.61 and the EC50 was determined as 0.57 µg/mL (≈ 2.45 µM).

As to `C=C1C(=O)O[C@@H]2[C@H]1[C@@H](O)C[C@H](C)[C@@H]1CCC(=O)[C@@]21C` [DESACETYLCONFERTIFLORIN], the pED50 is on record as 5.06 and the EC50 was 2.3 µg/mL (≈ 8.7 µM).

For the compound `C=C1C(=O)O[C@H]2[C@H]1[C@@H](OC(=O)C=C(C)C)CC1=C[C@@H](C[C@@]3(C)O[C@H]23)OC1=O` [ELEPHANTIN], the pED50 amounted to 5.49 and the EC50 amounted to 1.16 µg/mL (≈ 3.1 µM).

With `C=C1C(=O)O[C@H]2CC3=C[C@@H](C[C@]4(C)O[C@@H]4[C@@H](O)[C@H]12)OC3=O` [ELEPHANTOL], the pED50 is on record as 3.91 and the EC50 stood at 36 µg/mL (≈ 123 µM).

`C=C(C)C(=O)O[C@H]1CC2=C[C@@H](C[C@@]3(C)O[C@@H]3[C@H]3OC(=O)C(=C)[C@@H]31)OC2=O` [ELEPHANTOPIN]: the pED50 was 5.6 and the EC50 turned out to be 0.94 µg/mL (≈ 2.61 µM).

As to `C=C1C(=O)O[C@H]2[C@H]1[C@H](OC(=O)/C(C)=C\C)C[C@](O)(CCl)[C@@H]1[C@H](OC(C)=O)C=C(C)[C@]21O` [EUPACHLORIN ACETATE], the pED50 was 5.21 and the EC50 amounted to 0.16 µg/mL.

For `C=C1C(=O)O[C@H]2[C@H]1[C@H](OC(=O)/C(C)=C\C)C[C@](O)(CCl)[C@@H]1[C@H](O)C=C(C)[C@]21O` [EUPACHLORIN], the pED50 stood at 6.29 and the EC50 is 0.21 µg/mL (≈ 0.509 µM).

For `C=C1C(=O)O[C@@H]2/C=C(/CO)[C@@H](OC(C)=O)C[C@H](O)/C(C)=C\[C@@H](OC(=O)C(C)=CC)[C@@H]12` [EUPACUNOLIN], the pED50 is listed as 5.06 and the EC50 turned out to be 3.7 µg/mL (≈ 8.8 µM).

`C=C1C(=O)O[C@H]2[C@H]1[C@H](OC(=O)/C(C)=C\C)C[C@]1(CO1)[C@@H]1[C@H](OC(C)=O)C=C(C)[C@]21O` [EUPAROTIN ACETATE]: the pED50 was found to be 6.28 and the EC50 is 0.22 µg/mL.

As for `C=C1C(=O)O[C@H]2[C@H]1[C@H](OC(=O)/C(C)=C/C)C[C@]1(CO1)[C@@H]1[C@H](O)C=C(C)[C@]21O` [EUPAROTIN], the ED100 came out at 0.21 µg/mL and the pED50 is 6.25.

As to `C=C1C(=O)O[C@@H]2/C=C(\C)[C@@H](OC(C)=O)C/C=C(/C)C(O)[C@@H](OC(=O)/C(C)=C\C)[C@@H]12` (some centres undefined) [EUPATOCUNIN], the pED50 is 6.57 and the EC50 turned out to be 0.11 µg/mL (≈ 0.272 µM).

For `C=C1C(=O)O[C@@H]2/C=C(\C)[C@@H](OC(C)=O)CC=C(C)C(OC(=O)[C@]3(C)O[C@@H]3C)C(O)[C@@H]12` (some centres undefined) [EUPATOCUNOXIN], the pED50 was 5.39 and the EC50 turned out to be 1.7 µg/mL (≈ 4.04 µM).

`C=C1C(=O)O[C@H]2[C@H]1[C@H](OC(=O)/C(C)=C\C)C[C@]1(CO1)[C@@H]1[C@H](O)[C@H]3O[C@@]3(C)[C@]21O` [EUPATOROXIN]: the pED50 is on record as 5.15 and the EC50 came out at 2.8 µg/mL (≈ 7.14 µM).

On to `C=C1C(=O)O[C@H]2C=C(C)[C@H]3[C@@H](OC(C)=O)C[C@@](C)(O)[C@@H]3C[C@H]12` [GAILLARDIN], for which the pED50 was 5.12 and the EC50 is 2.3 µg/mL (≈ 7.51 µM).

Turning to `C=C1C(=O)O[C@@H]2/C=C(/C)[C@@]3(O)C=C[C@@](C)(C[C@@H](OC(=O)/C(=C\C)COC(C)=O)[C@@H]12)O3` [LIATRIN], the pED50 is listed as 5.41 and the EC50 turned out to be 1.62 µg/mL (≈ 3.87 µM).

As to `C=C1C(=O)O[C@@H]2[C@H]1CC[C@H](C)[C@]1(O)C=CC(=O)[C@@]21C` [PARTHENIN], the pED50 was determined as 5.89 and the EC50 stood at 0.34 µg/mL (≈ 1.3 µM).

For the compound `C=C1C(=O)O[C@@H]2/C=C(\C)C[C@H](O)C=C(C)CC[C@@H]12` [TAMAULIPIN A], the pED50 turned out to be 5.29 and the EC50 was determined as 1.26 µg/mL (≈ 5.07 µM).

As for `C=C1C(=O)O[C@@H]2/C=C(\C)[C@H](O)CC=C(C)CC[C@@H]12` [TAMAULIPIN B], the pED50 is recorded as 4.98 and the EC50 amounted to 2.6 µg/mL (≈ 10.5 µM).

For `C=C[C@@]12COC(=O)C(=C)[C@@H]1[C@H]1OC(=O)C(=C)[C@@H]1[C@@H](OC(=O)C(=C)CO)C2` [VERNODALIN], the pED50 was determined as 5.3 and the EC50 was found to be 1.8 µg/mL (≈ 4.99 µM).

`C=C[C@@]12COC(=O)C(=C)[C@@H]1[C@H]1OC(=O)C(=C)[C@@H]1[C@@H](OC(C)=O)C2` [VERNOLEPIN ACETATE]: the pED50 stood at 5.07 and the EC50 amounted to 2.7 µg/mL.

For the compound `C=C[C@@]12COC(=O)C(=C)[C@@H]1[C@H]1OC(=O)C(=C)[C@@H]1[C@@H](O)C2` [VERNOLEPIN], the pED50 is recorded as 5.19 and the EC50 is 1.8 µg/mL (≈ 6.51 µM).

In the case of `C=C[C@]12COC(=O)C(=C)[C@H]1[C@H](OC(C)=O)[C@H]1C(=C)C(=O)O[C@@H]1C2` [VERNOMENIN ACETATE], the pED50 came to 4.58 and the EC50 came out at 8 µg/mL.

Consider `C=C[C@@]12COC(=O)C(=C)[C@@H]1[C@@H](O)[C@@H]1C(=C)C(=O)O[C@H]1C2` [VERNOMENIN], for which the pED50 stood at 3.9 and the EC50 was 35 µg/mL (≈ 127 µM).

For the compound `C=C1C(=O)O[C@@H]2/C=C3\CCC4OC4(C[C@H](OC(=O)C(C)C)[C@@H]12)C(O)OC3` (some centres undefined) [VERNOMYGDIN], the pED50 was 5.39 and the EC50 was determined as 1.5 µg/mL (≈ 4.12 µM).
